The source of these data is patent US7038021B2, “Anti-dioxins monoclonal antibody suitable for assaying dioxins in environment and hybridoma producing the same” (priority 2004, dated 2006).

For data set [1] the following is noted: WHO-TEF, toxicity of 2,3,7,8-TCDD taken as 1; cited from earlier work.
Data set [2] relates to monoclonal antibody Dx02-I-0. Briefly: Cross-reactivity of monoclonal antibody Dx02-I-0 by indirect competitive assay (ELISA, II-1 immobilized). The note with it: for IC50: indirect competitive assay, immobilized II-1, 20% DMSO and 0.01% Triton-X100, room temperature 10 to 30 minutes; for Cross-reactivity: obtained from IC50 values, 1,2,3,7,8-PeCDF = 100; for reactivity (cross-reactivity) of the antibody: assuming the reactivity with 1,2,3,7,8-PeCDF is 100%. It is filed as binding, mouse. On the procedure:
According to the method used for determination of the antibody titer, antigen II-1 or II-2 was immobilized onto wells of a microtiter plate and the wells were washed. A solution (300 μl) of Block Ace 4-fold diluted with deionized water was then added to the wells, and the wells were blocked by allowing it to stand at room temperature for 2 hours. The wells were washed three times with the washing solution (300 μl). The supernatant (25 μl) of the culture containing a primary antibody as well as a solution (25 μl) of various concentrations of a phenoxathiin derivative (I-1 or I-2), which is a compound for screening having a structure similar to that of dioxins and having a reduced toxicity, in 20% DMSO and 0.01% Triton-X100, or a solution (25 μl) of various concentrations of dioxins in 20% DMSO and 0.01% Triton-X100, or a solution (25 μl) containing neither the phenoxathiin derivatives nor the dioxins in 20% DMSO and 0.01% Triton-X100 which serves as a control were then added to the wells and mixed in the wells. The wells were allowed to stand at room temperature for 10 to 30 minutes to effect an antigen-antibody reaction.
The wells were washed three times with the washing solution (300 μl). Then, in order to detect the primary antibody which was bound to II-1 or II-2 immobilized onto the plate, a solution (50 μl) of a horseradish peroxidase-labeled anti-mouse IgG (recognizing γ-chain) prepared by 3000-fold diluting with a solution of Block Ace 10-fold diluted with deionized water was added to the wells as a solution of a secondary antibody, and reacted at room temperature for one our. After the wells were again washed three times with the washing solution (300 μl), a TMB solution was added to the wells, and a coloration reaction was effected at room temperature. After 5 to 15 minutes, the reaction was terminated by adding 1 M phosphoric acid (50 μl), and the absorbance at 450 nm was immediately measured using a microplate reader. The ratio (B/B0) of an absorbance value (B) in the well to which one of phenoxathiin derivatives or dioxins was added, to an absorbance value (control OD; B0) in the well to which only a solution of 20% DMSO and 0.01% Triton-X100 was added but neither the phenoxathiin derivatives nor the dioxins were added, was calculated to evaluate the reactivity of the primary antibody. A hybridoma in the well in which a continuously high production of an antibody having a high binding activity against the antigens was recognized was selected, expanded, and cloned by a limiting dilution method.
Using monoclonal antibody Dx02-I-0, the cross-reactivity with 17 kinds of dioxins each having a toxicity value and 12 kinds of coplanar PCBs was evaluated by an indirect competitive assay. II-1 (50 μl) was added to wells in a microtiter plate, and the wells were allowed to stand at room temperature for one hour and then washed. After the wells were blocked, various concentrations of one of dioxins (25 μl) dissolved in 20% DMSO and 0.01% Triton-X100 or a solution (25 μl) of 20% DMSO and 0.01% Triton-X100 not containing any dioxin which serves as a control as well as a solution (25 μl) of the antibody diluted with 0.01 to 0.1% BSA were added to the wells in the plate, and reacted at room temperature for 10 to 30 minutes.
Then, a coloration reaction was effected using a secondary antibody against the antibody bound to the solid phase, i.e. a peroxidase-labeled anti-mouse IgG antibody (recognizing γ-chain) as well as TMB. After the enzyme reaction was terminated, the absorbance at 450 nm was immediately measured. The B/B0 values were plotted for various dioxins, IC50 values were calculated from the resulting figures, and the cross-reactivity of the antibody was obtained from these values (Table 3).
Background: In an ELISA, binding on a coated surface is turned into a signal by an enzyme label.

Data set [3] concerns antibody of non-patent reference 2. The note with it: assuming the reactivity with 1,2,3,7,8-PeCDF is 100%; cited from earlier work.

Converted amounts (≈) assume the structure as drawn. Some results are limits rather than exact numbers.

With `Clc1cc2oc3cc(Cl)c(Cl)cc3c2cc1Cl` [2,3,7,8-TeCDF], the TEF in data set [1] was 0.1. In data set [2], the IC50 was 0.0123 µg/mL (≈ 0.0402 µM) and the Cross-reactivity stood at 7.
Turning to `Clc1ccc(-c2cc(Cl)c(Cl)c(Cl)c2)c(Cl)c1` [2′,3,4,4′,5-PeCB], in data set [1], the TEF is 0.0001. In addition, in data set [2], the IC50 is >0.1 µg/mL and the Cross-reactivity was <1.
On to `Clc1cc2c(oc3cc(Cl)c(Cl)c(Cl)c32)c(Cl)c1Cl` [1,2,3,6,7,8-HxCDF], for which the Cross-reactivity in data set [3] is recorded as 36.6%. Further, the TEF in data set [1] is on record as 0.1. Also, in data set [2], the concentration for half-maximal inhibition (IC50) was >0.1 µg/mL and the Cross-reactivity is <1.
Consider `Clc1cc2c(cc1Cl)Oc1c(Cl)c(Cl)c(Cl)c(Cl)c1O2` [1,2,3,4,7,8-HxCDD], for which the TEF in data set [1] is 0.1. Further, in data set [2], the concentration for half-maximal inhibition (IC50) was >0.1 µg/mL and the Cross-reactivity was <1.
As to `Clc1cc2oc3c(Cl)c(Cl)c(Cl)c(Cl)c3c2cc1Cl` [1,2,3,4,7,8-HxCDF], the Cross-reactivity in data set [3] was 45.9%. Moreover, in data set [1], the TEF is on record as 0.1. In addition, in data set [2], the IC50 was >0.1 µg/mL and the Cross-reactivity is on record as <1.
For `Clc1cc2c(c(Cl)c1Cl)Oc1c(cc(Cl)c(Cl)c1Cl)O2` [1,2,3,7,8,9-HxCDD], the Cross-reactivity in data set [3] is recorded as 39.8%. The TEF in data set [1] is listed as 0.1. Further, in data set [2], the “reactivity (cross-reactivity) of the antibody” value (“reactivity (cross-reactivity)” for short) stood at 86%, the IC50 turned out to be 0.00106 µg/mL (≈ 0.00271 µM) and the Cross-reactivity amounted to 86.
For the compound `Clc1cc2c(c(Cl)c1Cl)Oc1c(Cl)c(Cl)c(Cl)c(Cl)c1O2` [1,2,3,4,6,7,8-HpCDD], the TEF in data set [1] was 0.01. For the same compound, in data set [2], the IC50 was >0.1 µg/mL and the Cross-reactivity is <1.
In the case of `Clc1cc2c(cc1Cl)Oc1cc(Cl)c(Cl)cc1O2` [2,3,7,8-TeCDD, 2,3,7,8-tetrachlorodibenzo-p-dioxin], in data set [1], the TEF is 1. Further, in data set [2], the “reactivity (cross-reactivity)” value is 13%, the half-inhibitory concentration (IC50) came to 0.0072 µg/mL (≈ 0.0224 µM) and the Cross-reactivity turned out to be 13.
Take `Clc1cc2c(oc3c(Cl)c(Cl)c(Cl)cc32)c(Cl)c1Cl` [2,3,4,6,7,8-HxCDF]: the Cross-reactivity in data set [3] is on record as 43.8%. Further, the TEF in data set [1] was 0.1. Besides, in data set [2], the “reactivity (cross-reactivity)” value is recorded as 93%, the IC50 was 0.000989 µg/mL (≈ 0.00264 µM) and the Cross-reactivity came out at 93.
Turning to `Clc1ccc(-c2ccc(Cl)c(Cl)c2Cl)cc1Cl` [2,3,3′,4,4′-PeCB], the TEF in data set [1] is 0.0001. In data set [2], the IC50 is >0.1 µg/mL and the Cross-reactivity is <1.
For the compound `Clc1cc2oc3cc(Cl)c(Cl)c(Cl)c3c2cc1Cl` [1,2,3,7,8-PeCDF], the TEF in data set [1] is 0.05. In data set [2], the IC50 turned out to be 0.000915 µg/mL (≈ 0.00269 µM) and the Cross-reactivity came to 100.
Turning to `Clc1cc(-c2cc(Cl)c(Cl)c(Cl)c2Cl)cc(Cl)c1Cl` [2,3,3′,4,4′,5,5′-HpCB], the TEF in data set [1] is given as 0.0001. For the same compound, in data set [2], the IC50 was >0.1 µg/mL and the Cross-reactivity was <1.
Take `Clc1ccc(-c2ccc(Cl)c(Cl)c2)cc1Cl` [3,3′,4,4′-TeCB]: the TEF in data set [1] is 0.0001. Further, in data set [2], the IC50 is >0.1 µg/mL and the Cross-reactivity was <1.
In the case of `Clc1cc(Cl)c(-c2cc(Cl)c(Cl)c(Cl)c2)cc1Cl` [2,3′,4,4′,5,5′-HxCB], the TEF in data set [1] was 0.00001. In addition, in data set [2], the IC50 was >0.1 µg/mL and the Cross-reactivity is recorded as <1.
As for `Clc1ccc(-c2cc(Cl)c(Cl)c(Cl)c2)cc1` [3,4,4′,5-TeCB], the TEF in data set [1] was 0.0001. Further, in data set [2], the IC50 is >0.1 µg/mL and the Cross-reactivity is <1.
In the case of `Clc1cc2oc3cc(Cl)c(Cl)c(Cl)c3c2c(Cl)c1Cl` [1,2,3,7,8,9-HxCDF], the results for the Cross-reactivity in data set [3] and in data set [2] were 42.7% and 3, respectively. For the same compound, the TEF in data set [1] was 0.1. Besides, the IC50 in data set [2] worked out at 0.0355 µg/mL (≈ 0.0947 µM).
On to `Clc1ccc(-c2cc(Cl)c(Cl)cc2Cl)cc1Cl` [2,3′,4,4′,5-PeCB], for which, in data set [1], the TEF is 0.0001. In addition, in data set [2], the IC50 was >0.1 µg/mL and the Cross-reactivity is <1.
For the compound `Clc1cc(-c2ccc(Cl)c(Cl)c2Cl)cc(Cl)c1Cl` [2,3,3′,4,4′,5′-HxCB], in data set [1], the TEF is 0.0005. In data set [2], the half-inhibitory concentration (IC50) was >0.1 µg/mL and the Cross-reactivity was <1.
Regarding `Clc1cc2c(oc3c(Cl)c(Cl)c(Cl)c(Cl)c32)c(Cl)c1Cl` [1,2,3,4,6,7,8-HpCDF], the TEF in data set [1] is on record as 0.01. In data set [2], the IC50 is >0.1 µg/mL and the Cross-reactivity was <1.
Regarding `Clc1ccc(-c2cc(Cl)c(Cl)c(Cl)c2Cl)cc1` [2,3,4,4′,5-PeCB], in data set [1], the TEF was 0.0005. For the same compound, in data set [2], the IC50 was >0.1 µg/mL and the Cross-reactivity is on record as <1.
In the case of `Clc1c(Cl)c(Cl)c2c(c1Cl)Oc1c(Cl)c(Cl)c(Cl)c(Cl)c1O2` [OCDD], in data set [1], the TEF is 0.0001. Moreover, in data set [2], the IC50 was >0.1 µg/mL and the Cross-reactivity was <1.
With `Clc1cc2c(c(Cl)c1Cl)Oc1cc(Cl)c(Cl)c(Cl)c1O2` [1,2,3,6,7,8-HxCDD], the TEF in data set [1] is recorded as 0.1. In data set [2], the “reactivity (cross-reactivity)” value stood at 93%, the IC50 was found to be 0.000984 µg/mL (≈ 0.00252 µM) and the Cross-reactivity is recorded as 93.
Consider `Clc1cc2c(cc1Cl)Oc1c(cc(Cl)c(Cl)c1Cl)O2` [1,2,3,7,8-PeCDD], for which, in data set [1], the TEF is given as 1. In data set [2], this compound displayed an IC50 of 0.0296 µg/mL (≈ 0.083 µM) and a Cross-reactivity of 3.
With `Clc1cc(-c2cc(Cl)c(Cl)c(Cl)c2)cc(Cl)c1Cl` [3,3′,4,4′,5,5′-HxCB], the TEF in data set [1] was 0.01. In data set [2], this compound yielded an IC50 of 0.0629 µg/mL (≈ 0.174 µM) and a Cross-reactivity of 1.
For the compound `Clc1c(Cl)c(Cl)c2c(oc3c(Cl)c(Cl)c(Cl)c(Cl)c32)c1Cl` [OCDF], in data set [1], the TEF is recorded as 0.0001. Also, in data set [2], the IC50 is >0.1 µg/mL and the Cross-reactivity is <1.
Consider `Clc1cc2oc3c(Cl)c(Cl)c(Cl)c(Cl)c3c2c(Cl)c1Cl` [1,2,3,4,7,8,9-HpCDF], for which, in data set [1], the TEF is reported as 0.01. In data set [2], the “reactivity (cross-reactivity)” value amounted to 34%, the IC50 was determined as 0.00267 µg/mL (≈ 0.00652 µM) and the Cross-reactivity is 34.
For the compound `Clc1ccc(-c2cc(Cl)c(Cl)c(Cl)c2)cc1Cl` [3,3′,4,4′,5-PeCB], in data set [1], the TEF was 0.1. In addition, in data set [2], the IC50 is 0.0537 µg/mL (≈ 0.165 µM) and the Cross-reactivity is recorded as 2.
As for `Clc1ccc(-c2cc(Cl)c(Cl)c(Cl)c2Cl)cc1Cl` [2,3,3′,4,4′,5-HxCB], in data set [1], the TEF is 0.0005. Also, in data set [2], the IC50 is >0.1 µg/mL and the Cross-reactivity is recorded as <1.

In general, IC50 refers to the point on the concentration scale where inhibition reaches its midpoint. High values mean a need for much substance, low ones inhibition by little substance.
